According to ChEMBL document CHEMBL5233222, “Bridging free radical chemistry with drug discovery: A promising way for finding novel drugs efficiently” (Eur J Med Chem, 2020):

Test: Inhibition of AAPH-induced hemolysis of human erythrocytes
Type: functional, cell-based
Conditions: erythrocyte

Work on `CC(C)=CCC[C@](C)(O[C@@H]1O[C@H](CO[C@@H]2O[C@H](CO)[C@@H](O)[C@H](O)[C@H]2O)[C@@H](O)[C@H](O)[C@H]1O)[C@H]1CC[C@]2(C)[C@@H]1[C@H](O)C[C@@H]1[C@@]3(C)CC[C@H](O[C@@H]4O[C@H](CO)[C@@H](O)[C@H](O)[C@H]4O[C@@H]4O[C@H](CO)[C@@H](O)[C@H](O)[C@H]4O)C(C)(C)[C@@H]3CC[C@]12C` [GINSENOSIDE RB1] yielded an IC50 of 3180 nM.

With `CC(C)=CCC[C@](C)(O[C@@H]1O[C@H](CO[C@@H]2OC[C@@H](O)[C@H](O)[C@H]2O)[C@@H](O)[C@H](O)[C@H]1O)[C@H]1CC[C@]2(C)[C@@H]1[C@H](O)C[C@@H]1[C@@]3(C)CC[C@H](O[C@@H]4O[C@H](CO)[C@@H](O)[C@H](O)[C@H]4O[C@@H]4O[C@H](CO)[C@@H](O)[C@H](O)[C@H]4O)C(C)(C)[C@@H]3CC[C@]12C` [GINSENOSIDE RB3] the IC50 was 2650 nM.
